Source: patent US12590063B2, “Phenol derivative” (Sumitomo Pharma Co., Ltd., priority 2020, dated 2026)
Marks after values point to notes of the source that are not given here.

Assays:
[1] = tested on: normal rats; test: Evaluation of effect of increasing swallowing in normal rats; type: in vivo, rat; details: anesthetized normal rats; for number of swallowings, Average: pharyngeal infusion 12 ml/h for 10 seconds, counted for 30 seconds
Experimental: Test Example 5: Evaluation of Effect of Increasing Swallowing in Normal Rats
This test is for evaluating the effect of increasing swallowing function of drugs. It has been reported that induction of the swallowing reflex in normal rats using NaCl-containing water suppresses the number of swallows, and the increase in swallowing function was evaluated using a NaCl-containing solvent. After the induction of anesthesia in Crl:CD(SD) male rats (7 to 8 rats per group, 8 to 9 weeks old, body weight 280 to 310 g: at the time of arrival), the animals were sheared under the jaw with clippers and held in a supine position on a heat pad kept at 37° C. to prevent limb movement. A rat sonde was inserted into the animals' mouths, and the tip of the sonde was retained in the pharynx. Under this condition, the test substance administration solution was administered at 12 ml/h for 10 seconds using an infusion pump, and the swallowing movements were measured for 30 seconds from the initiation of administration. Note that the vehicle used was saline solution containing 1% ethanol and 0.1% Tween 80.

[2] = tested on: Crl:CD(SD) rats; test: Evaluation of taste aversion by drinking water; type: in vivo, rat; details: two-bottle choice, overnight
Experimental: Test Example 3: Evaluation of Taste Aversion by Drinking Water
This test is for evaluating the taste aversion of drugs. The test was carried out by, while keeping Crl:CD(SD) rats (8 rats per group, 8 weeks old at the time of arrival) in home cages, adding the test substance solutions to water bottles. Two water bottles per cage were prepared, each filled with vehicle (sterile water containing 0.05% ethanol) and the test substance solution, and kept overnight, and the amount of water consumed during that period was measured. The proportion of water consumed with the test substance was calculated from the total amount of water consumed from the two water bottles, and the evaluation of taste aversion was carried out. It can be evaluated that the larger the proportion of water consumed with the test substance, the smaller the taste aversion and the smaller the stimulatory properties caused by the test substance.

[3] = tested on: normal rats; test: Desensitization of effect of increasing swallowing in normal rats; type: in vivo, rat
Source text: Test Example 6: Evaluation with Respect to Desensitization of Effect of Increasing Swallowing in Normal Rats
TRPV1 agonists are known to induce TRPV1 desensitization when given at high doses or repeatedly. Using the same method as in Test Example 5, the effect of drugs on normal swallowing function in rats to induce desensitization was investigated. After the induction of anesthesia in Crl:CD(SD) male rats (7 to 8 rats per group, 8 to 9 weeks old, body weight 280 to 310 g: at the time of arrival), the animals were sheared under the jaw with clippers and held in a supine position on a heat pad kept at 37° C. to prevent limb movement. A sonde was inserted into the animals' mouths, and the tip of the sonde was retained in the pharynx. Under this condition, the test substance administration solution was administered at 12 ml/h for 10 seconds using an infusion pump, and the swallowing movements were measured for 30 seconds from the initiation of administration. Thereafter, the same test was performed about 5 minutes later, and the evaluation was repeated for a total of five times. Note that the vehicle used was saline solution containing 1% ethanol and 0.1% Tween 80.

[4] = tested on: normal rats; test: Test for eye stimulatory properties in normal rats; type: in vivo, rat; details: for Number of eye-wiping (Average ± Standard deviation): 10 μL into the right eye, observed for 1 minute
Experimental: Test Example 7: Evaluation with Respect to Test for Eye Stimulatory Properties in Normal Rats
It has been reported that TRPV1 agonists have stimulatory properties and that administration of TRPV1 agonist solutions to the eye can induce wiping behavior. The stimulatory properties of the compounds were investigated using normal rats. Crl:CD(SD) male rats (5 rats per group, 8 weeks old, body weight 271 to 320 g) were held unanesthetized and 10 μL was dropped into the right eye using a micropipette.

[5] = biological target: T1, Human TRPV1 (Homo sapiens, UniProt Q8NER1); test: Evaluation of agonistic properties using human TRPV1 transiently expressing cells; type: cell-based; details: for EC50: HEK293 cells transiently expressing human TRPV1 and apoaequorin, luminescence signal Rlu (Max-Min), read-out: TRPV1 EC50; for TRPV-1-agonistic activity (in words): evaluation test for TRPV-1-agonistic properties, summary of Tables 3 and 4
T1 construct: the TRPV1 gene (GenBank NP_542435.2) had been inserted; expressed in transfected cells; host or cells: HEK293 cells (cat #CCL-82.2, ATCC), transient transfection with pcDNA3.1
T1 sequence (Q8NER1 whole entry): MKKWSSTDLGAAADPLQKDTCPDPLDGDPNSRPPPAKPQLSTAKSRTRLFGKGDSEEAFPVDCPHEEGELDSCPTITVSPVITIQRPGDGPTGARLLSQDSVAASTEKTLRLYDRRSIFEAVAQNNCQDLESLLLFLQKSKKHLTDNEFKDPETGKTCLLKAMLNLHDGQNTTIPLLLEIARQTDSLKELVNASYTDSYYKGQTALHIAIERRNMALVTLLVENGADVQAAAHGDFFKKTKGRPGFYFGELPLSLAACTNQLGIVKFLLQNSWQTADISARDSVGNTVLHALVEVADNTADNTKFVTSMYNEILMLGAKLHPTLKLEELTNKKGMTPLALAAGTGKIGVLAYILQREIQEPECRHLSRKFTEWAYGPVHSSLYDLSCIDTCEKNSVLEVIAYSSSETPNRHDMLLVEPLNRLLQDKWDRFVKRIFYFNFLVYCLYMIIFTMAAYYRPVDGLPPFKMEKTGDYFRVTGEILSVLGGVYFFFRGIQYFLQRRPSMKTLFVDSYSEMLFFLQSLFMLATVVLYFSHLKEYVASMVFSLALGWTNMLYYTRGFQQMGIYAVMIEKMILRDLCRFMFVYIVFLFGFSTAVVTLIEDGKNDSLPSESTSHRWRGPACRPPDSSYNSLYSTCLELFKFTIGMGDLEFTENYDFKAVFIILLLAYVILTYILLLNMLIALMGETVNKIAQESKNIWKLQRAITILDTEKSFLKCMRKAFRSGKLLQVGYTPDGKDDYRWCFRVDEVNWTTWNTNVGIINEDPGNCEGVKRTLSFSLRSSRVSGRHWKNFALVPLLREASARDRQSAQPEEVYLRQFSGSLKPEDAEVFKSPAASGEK
How it was run: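 HEK293 cells transiently co-expressing human TRPV1 and apoaequorin, loaded with 4.5 μM Viviren in HBSS/HEPES/0.1% BSA for 2 h at RT in the dark. Compound-evoked luminescence (465 nm) measured after addition; agonism expressed as Rlu (Max−Min).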

[6] = Evaluation test for metabolic stability to S9; type: in vitro ADME; details: liver S9 fraction, 37° C., 15 minutes, final compound concentration 10 nM
Experimental: Test Example 4: Evaluation Test for Metabolic Stability to S9
The compounds were added to a reaction solution in which the liver S9 fraction was diluted with phosphate buffer, and incubation was initiated at 37° C. (final compound concentration 10 nM, final volume 300 μL). After incubation for 15 minutes, the reaction was stopped by adding the reaction solution to acetonitrile, and centrifugation was carried out. After filtering the supernatant through a filter, the amount of compounds was determined using LC/MS/MS. From the amount of compounds obtained, the residual rate 15 minutes after the initiation of the reaction was calculated relative to the amount of compounds before the initiation of the reaction (0 minutes).

| Structure (SMILES) | number of swallowings compared to the solvent administered group (Dunnett's test) [1] | number of swallowings, Average [1] | proportion of water consumed with the test substance (% Vehicle) ([2]; 1 μM in drinking water) | proportion of water consumed with the test substance (% Vehicle) ([2]; 3 μM in drinking water) | proportion of water consumed with the test substance (% Vehicle) ([2]; 10 μM in drinking water) | EC50 [5] [nM] | TRPV-1-agonistic activity (in words) [5] | Residual rate (%) [6] [%] | number of wiping behaviors versus control (Dunnett's test) ([4]; rat, in vivo) | further results |
| --- | --- | --- | --- | --- | --- | --- | --- | --- | --- | --- |
| COc1cc(CNC(=O)CCCC/C=C/C(C)C)ccc1O [Capsaicin, capsaicin, reference compound] | significantly increased | 14.1* | 13 | 9 | – | – | – | – | – | proportion of water consumed with the test substance (% Vehicle) ([2]; 0.3 μM in drinking water): 71 % Vehicle; number of swallows, Average, First time ([3]; 10 μM, 1st of five administrations about 5 minutes apart): 18.2; number of swallows, Average, Second time ([3]; 10 μM, 2nd of five administrations about 5 minutes apart): 13.2; number of swallows, Average, Third time ([3]; 10 μM, 3rd of five administrations about 5 minutes apart): 14; number of swallows, Average, Fourth time ([3]; 10 μM, 4th of five administrations about 5 minutes apart): 9.7**; number of swallows, Average, Fifth time ([3]; 10 μM, 5th of five administrations about 5 minutes apart): 9.5**; number of swallows at repeated administrations compared to the 1st administration (Dunnett's test) ([3]; five administrations about 5 minutes apart): significantly reduced at the 4th and 5th administrations; Number of eye-wiping (Average ± Standard deviation) ([4]; 1 μM): 2.0 ± 2.3; Number of eye-wiping (Average ± Standard deviation) ([4]; 3 μM): 0.2 ± 0.4; Number of eye-wiping (Average ± Standard deviation) ([4]; 10 μM): 6.4 ± 6.3; Number of eye-wiping (Average ± Standard deviation) ([4]; 30 μM): 6.4 ± 4.4; Number of eye-wiping (Average ± Standard deviation) ([4]; 100 μM): 21.4 ± 9.7; number of wiping behaviors versus control (Dunnett's test) ([4]; eye drop in unanesthetized rats): significantly increased the number of wiping behaviors at concentrations of 30 μM and more |
| COc1cc(CC(=O)Nc2cccc(-c3cccc(OC(=O)C(C)C)c3)n2)ccc1O [Example 1, 3-{6-[2-(4-Hydroxy-3-methoxyphenyl)acetamido]pyridin-2-yl}phenyl 2-methylpropanoate] | – | 7.6 | 90 | 66 | 35 | 2.6 | stronger TRPV-1-agonistic activity | <1 | no significant difference | – |
| COc1cc(CC(=O)Nc2cccc([C@H]3CC[C@@H](OC(=O)C4CCCCC4)CC3)c2)ccc1O [Example 2, cis-4-{3-[2-(4-Hydroxy-3-methoxyphenyl)acetamido]phenyl}cyclohexyl cyclohexanecarboxylate] | significantly increased | 17.8*** | 94 | 80 | 71 | 4.5 | stronger TRPV-1-agonistic activity | 1 | no significant difference | – |
| COc1cc(CC(=O)Nc2cccc([C@H]3CC[C@@H](OC(C)=O)CC3)c2)ccc1O [Example 12, cis-4-{3-[2-(4-hydroxy-3-methoxyphenyl)acetamido]phenyl}cyclohexyl acetate] | – | 19.4** | 103 | 31 | 22 | 6.3 | – | 2 | no significant difference | – |
